Experimental data: PubChem BioAssay AID2060626 (Molecular Pharmacology Branch, DTP, NCI, 2025)
“And” between values parts separate entries of the source, which are not always exact repeats. Equal values may be shown once.

Test system: 168753-222-R-J1-PDC complex spheroid viability
Experiment: Anticancer human tumor 168753-222-R-J1-PDC patient-derived bladder carcinoma cell line growth inhibition [CLK]
Details: for viability, T/C: stronger effect = lower value
Description: A high-throughput screen of multi-cell type tumor spheroids was designed to identify active combinations of […] and targeted small molecules. Complex spheroids include a stromal component modeled by human endothelial cells (HUVEC) and fibroblasts modeled by human mesenchymal stem cells (MSCs). The concentration ranges selected for each drug and investigational agent were based upon clinically achievable concentrations if the clinical Cmax of the agent was known.
Compounds. The drugs and investigational agents: cirtuvivint (SM08502; NSC835563), CC-671 (NSC850746), vemurafenib (NSC761431), tapotoclax (NSC804041), sotorasib (NSC818433), adagrasib (NSC831453), MRTX-1133 (NSC836407), BAY2416964 (NSC825713), copanlisib (NSC816437), inavolisib (NSC800729), abemaciclib (NSC768073), osimertinib (NSC779217), entinostat (NSC756642), eltanexor (KPT-8602, NSC794443), venetoclax (NSC766270), ceralasertib (NSC777638), bortezomib (NSC756655), olaparib (NSC753686), talazoparib (NSC767125), alisertib (NSC759677), peposertib (NSC802822), gemcitabine (NSC613327), 5-fluorouracil (NSC19893), SN-38 (NSC673596), oxaliplatin (NSC266046), paclitaxel (NSC125973), and doxorubicin (NSC123127), were obtained from the National Cancer Institute (NCI) Developmental Therapeutics Program Chemical Repository. The FDA-approved anticancer drug set is available from the Developmental Therapeutics Program at https://dtp.cancer.gov/organization/dscb/obtaining/available plates.htm. […] The stock solutions were prepared in dimethyl sulfoxide (DMSO, Sigma-Aldrich, St. Louis, MO, cat. D2650), except for the platinum complexes which were prepared in saline (Quality Biological, Gaithersburg, MD, cat. 114-055-101), at 800-fold the tested concentration and stored at -70 degrees C prior to their use. All drugs and investigational agents were tested over a range starting from a high concentration at or near the clinical Cmax and decreasing in half-log increments. If the clinical Cmax for an agent had not been determined, the highest concentration tested was 10 microM.
Cell Culture. All cells were maintained in an incubator at 37 degrees C and 5% CO2 with 95% humidity. The PDC lines were cultured according to standard operating procedures established by the NCI PDMR. Briefly, all PDCs were thawed and cultured in Matrigel-coated flasks prepared with a working solution of 1X Ham's F-12 nutrient mix, without supplementation (Invitrogen, Waltham, MA, cat. 11765054), 100 U/mL penicillin-streptomycin (Invitrogen, cat. 15140122), and 2.5% Matrigel (Corning Inc., Corning, NY, cat. 354248) for the first three passages. The 947758-054-R-J2-PDC line was cultured in 6B/Colon 1A media, which includes advanced DMEM/F-12 (Thermo Fisher Scientific, cat. 12634028), 10 mM HEPES (Thermo Fisher Scientific, cat. 15630080), 1X GlutaMAX supplement (Thermo Fisher Scientific, cat. 35050061), 0.1 mg/mL primocin (InvivoGen, cat. ant-pm-2), 10% defined fetal bovine serum, heat inactivated (HyClone Laboratories Inc., cat. SH30070.03HI), 1.25 mM N-Acetyl-L-cysteine (Sigma-Aldrich, cat. A9165), 10 mM nicotinamide (Sigma-Aldrich, cat. N0636), 1X B-27 supplement (Thermo Fisher Scientific, cat. 17504044), 1X N-2 supplement (Thermo Fisher Scientific, cat. 17502048), and 10 microM Y-27632 dihydrochloride (Tocris Bioscience, cat. 1254). The 876862-298-R-J1-PDC was cultured in 6E media, which includes all 6B/Colon 1A media components plus 50% L-WRN conditioned media (ATCC, cat. CRL-3276), 50 ng/mL recombinant human EGF recombinant protein (hEGF; Thermo Fisher Scientific, cat. PHG0311), 10 ng/mL recombinant human fibroblast growth factor 10 (hGFG-10; PeproTech, cat. 100-26), 1 ng/mL recombinant human fibroblast growth factor 2 (hFGF-2; PeproTech, cat. 100-18B), and 1 µM prostaglandin E2 (PGE2; Tocris, cat. 2296). The 227483-062-R1-J1-PDC line was cultured in Panc media, containing all 6E components except hFGF-2, with the addition of 500 nM SB-431542 (Selleckchem, cat. S1067) and 10 nM gastrin (Tocris, cat. 3006). […]
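Note: viability measured after seven days of drug exposure.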
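Throughout, for viability, T/C: luminescence signal used as surrogate for viable cell amount; 100% = DMSO vehicle control wells.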

SMILES	viability, T/C (compound 0.0316 µM)	viability, T/C (compound 0.1 µM)	viability, T/C (compound 0.316 µM)	viability, T/C (compound 1 µM)	viability, T/C (compound 3.16 µM)	viability, T/C (compound 10 µM)	IC50 (curve of compound)	also measured
C#Cc1c(F)ccc2cc(O)cc(-c3ncc4c(N5CC6CCC(C5)N6)nc(OCC56CCCN5CC(F)C6)nc4c3F)c12 (centres undefined)	107% and 94.2%	103% and 96.3%	99.5% and 107%	103% and 97.3%	89.2% and 66.9%	80.6% and 52.9%	> 10000 nM	–
C=C(F)C(=O)N1CCN(c2nc(OCC3CCCN3C)nc3c2CCN(c2cccc4cccc(Cl)c24)C3)CC1CC#N (centres undefined)	99.3% and 97.7%	93.6% and 102%	91.3% and 87.2%	95.6% and 87.8%	93.2% and 67.9%	70.9% and 16.5%	> 10000 nM and 4650 nM	–
C=CC(=O)N1CCN(c2nc(=O)n(-c3c(C)ccnc3C(C)C)c3nc(-c4c(O)cccc4F)c(F)cc23)C(C)C1 (centres undefined)	91% and 86.6%	111% and 92.8%	101% and 92.3%	110% and 103%	106% and 121%	103% and 74.9%	> 10000 nM	–
C=CC(=O)Nc1cc(Nc2nccc(-c3cn(C)c4ccccc34)n2)c(OC)cc1N(C)CCN(C)C	–	–	–	–	–	–	> 300 nM	viability, T/C (compound 0.000949 µM): 111% and 100%; viability, T/C (compound 0.003 µM): 108% and 99.8%; viability, T/C (compound 0.00949 µM): 97.8% and 98.2%; viability, T/C (compound 0.03 µM): 98% and 106%; viability, T/C (compound 0.0949 µM): 103% and 106%; viability, T/C (compound 0.3 µM): 89.4% and 103%
CC(=O)O[C@H]1C(=O)[C@@]2(C)[C@H]([C@H](OC(=O)c3ccccc3)[C@]3(O)C[C@H](OC(=O)[C@H](O)[C@@H](NC(=O)c4ccccc4)c4ccccc4)C(C)=C1C3(C)C)[C@]1(OC(C)=O)CO[C@@H]1C[C@@H]2O	22.5% and 55.4%	10.6% and 32.8%	11.2% and 23.4%	12.6% and 36.7%	16% and 32.8%	20.1% and 42.8%	< 31.6 nM	–
CC(C)CC(NC(=O)C(Cc1ccccc1)NC(=O)c1cnccn1)B(O)O (centres undefined)	–	–	–	–	–	–	2.11 nM and 2.62 nM	viability, T/C (compound 0.000949 µM): 84.2% and 86.5%; viability, T/C (compound 0.003 µM): 34.9% and 45.1%; viability, T/C (compound 0.00949 µM): 0.64% and 3.31%; viability, T/C (compound 0.03 µM): 1.34% and 1.82%; viability, T/C (compound 0.0949 µM): 0.77% and 0.3%; viability, T/C (compound 0.3 µM): 0.23% and 0.22%
CC(CO)NC(=O)c1cc(-c2ccc(Cl)cc2)nn(-c2cnn(C)c2)c1=O (centres undefined)	105% and 101%	105% and 90.6%	94.4% and 95.7%	94.6% and 100%	92.7% and 107%	89.6% and 82.1%	> 10000 nM	–
CC(Nc1ccc2c(c1)OCCn1cc(N3C(=O)OCC3C(F)F)nc1-2)C(N)=O (centres undefined)	86.9% and 78.6%	45.8% and 69.2%	20.7% and 22.8%	13.3% and 18.8%	10.3% and 13.1%	11% and 14.8%	88.9 nM and 161 nM	–
CC1(C)CCC(CN2CCN(c3ccc(C(=O)NS(=O)(=O)c4ccc(NCC5CCOCC5)c([N+](=O)[O-])c4)c(Oc4cnc5[nH]ccc5c4)c3)CC2)=C(c2ccc(Cl)cc2)C1	87% and 96.7%	97% and 94.3%	74% and 113%	112% and 102%	54.4% and 93.3%	10.7% and 22%	3550 nM and 6370 nM	–
CC1COCCN1c1cc(C2(S(C)(=N)=O)CC2)nc(-c2ccnc3[nH]ccc23)n1 (centres undefined)	93.5% and 106%	67% and 101%	84.1% and 104%	75.9% and 102%	49.7% and 87.8%	26.7% and 56.4%	3110 nM and > 10000 nM	–
CCCS(=O)(=O)Nc1ccc(F)c(C(=O)c2c[nH]c3ncc(-c4ccc(Cl)cc4)cc23)c1F	91.7% and 104%	108% and 107%	103% and 113%	132% and 115%	120% and 118%	71.7% and 76.3%	> 10000 nM	–
CCN1CCN(Cc2ccc(Nc3ncc(F)c(-c4cc(F)c5nc(C)n(C(C)C)c5c4)n3)nc2)CC1	37.7% and 78.4%	44.1% and 77.1%	25.1% and 68.1%	36.4% and 64.2%	–	–	–	viability, T/C (compound 0.00316 µM): 97.4% and 95.4%; viability, T/C (compound 0.01 µM): 80.3% and 94%
CCc1c2c(nc3ccc(O)cc13)-c1cc3c(c(=O)n1C2)COC(=O)[C@]3(O)CC	31.5% and 79.7%	32.8% and 59.9%	15.3% and 52.8%	12% and 15.8%	–	–	–	viability, T/C (compound 0.00316 µM): 86.5% and 95.1%; viability, T/C (compound 0.01 µM): 49.5% and 86.4%
CNC(=O)c1ccc(Nc2nc(OC3CCCC3)c3c(-c4ccc5nc(C)oc5c4)c[nH]c3n2)c(OC)c1	101% [middle of 12 runs]	99.3% [middle of 12 runs]	–	45.1% [middle of 12 runs]	33.5% [middle of 12 runs]	23.6% [middle of 12 runs]	–	IC50 (compound alone, run of 08/01/2023): 900 nM [middle of 12 runs]
COC1C=CCC(C)C(C)S(=O)(=O)NC(=O)c2ccc3c(c2)N(CC2CCC21)CC1(CCCc2cc(Cl)ccc21)CO3 (centres undefined)	88.5% and 107%	98.9% and 95.5%	61.2% and 104%	53.9% and 76%	35.8% and 49.4%	20.4% and 19%	1100 nM and 2930 nM	–
COc1c(OCCCN2CCOCC2)ccc2c3n(c(=NC(=O)c4cnc(N)nc4)nc12)CCN3	10.2% and 17%	13.6% and 15.3%	7.59% and 8.3%	2.26% and 3.63%	–	–	6.47 nM and 8.95 nM	viability, T/C (compound 0.00316 µM): 59.7% and 74.2%; viability, T/C (compound 0.01 µM): 44.1% and 48.3%
Cn1ncnc1[C@H]1c2n[nH]c(=O)c3cc(F)cc(c23)N[C@@H]1c1ccc(F)cc1	74.9% and 108%	55.2% and 91.6%	–	–	–	–	> 100 nM	viability, T/C (compound 0.000316 µM): 82.2% and 103%; viability, T/C (compound 0.001 µM): 97% and 99.6%; viability, T/C (compound 0.00316 µM): 70% and 106%; viability, T/C (compound 0.01 µM): 87.6% and 108%
NC(=O)C(=Cn1cnc(-c2cc(C(F)(F)F)cc(C(F)(F)F)c2)n1)c1cncnc1	–	–	–	–	–	–	–	viability, T/C (compound 0.00949 µM): 102% and 101%; viability, T/C (compound 0.03 µM): 76% and 95.7%; viability, T/C (compound 0.0949 µM): 52.8% and 83.2%; viability, T/C (compound 0.3 µM): 48.1% and 84.1%; viability, T/C (compound 0.949 µM): 41.1% and 68.7%; viability, T/C (compound 3 µM): 26.5% and 52%
Nc1ccccc1NC(=O)c1ccc(CNC(=O)OCc2cccnc2)cc1	62.3% and 96.6%	73.6% and 91.6%	60.1% and 85.8%	37.7% and 86.4%	38.6% and 60.3%	11.8% and 22.8%	763 nM and 4400 nM	–
Nc1ccn(C2OC(CO)C(O)C2(F)F)c(=O)n1 (centres undefined)	57.8% and 83.1%	24.7% and 60.2%	18% and 50.2%	23.2% and 52.5%	26.2% and 46.9%	21.6% and 37.8%	–	–
O=C(c1cc(Cc2n[nH]c(=O)c3ccccc23)ccc1F)N1CCN(C(=O)C2CC2)CC1	76.1% and 102%	97.4% and 102%	93.7% and 95.2%	62% and 95.9%	46.3% and 107%	70.3% and 93.2%	> 10000 nM	–
O=c1[nH]cc(F)c(=O)[nH]1	93.5% and 101%	102% and 107%	88% and 104%	109% and 112%	67.9% and 113%	53.5% and 93.2%	> 10000 nM	–
